# Measurements taken from patent US12545936B2, “Expression and secretion of UV absorbent material from transformed bacteria” (University of Cincinnati, priority 2021, dated 2026).
# Entries after “also recorded” stand apart in the source; their conditions may differ.
# Test system: human skin tissues
# Assay: UV irradiation of human skin explants, cleaved caspase-3 immunohistochemical staining
# Assay type: cell-based
# Description: MAAs extracted from the engineered bacteria of the present invention were evaluated. Human skin was obtained from discarded tissue from elective procedures. The skin tissue was cleaned, trimmed, sterilized and plated in an organ culture medium overnight at 33° C. MAA extract or appropriate controls were applied on skin tissues, after which they were exposed to 135 mJ/cm2 UV-A and UV-B light. The application of live bacteria on human skin tissue was subsequently tested. Different treatments viz. overnight culture of wild type EcN, 10% zinc oxide solution, or overnight culture of EcN expressing shinorine were applied on human skin explants. Treatments were allowed to equilibrate with skin tissue for 1 hour, after which tissues were exposed to UV radiation. The tissues were then incubated for different durations and subsequently fixed. Cleaved caspase-3 immunohistochemical staining was performed to check for DNA damage. Slides were imaged using Leica Slide Scanner and representative images were captured. The captured images were quantified using ImageJ with a modified, previously published protocol (Crowe and Yue, 2019).
structure (smiles),measurement,setting,value
COC1=C(NCC(=O)O)C[C@@](O)(CO)C/C1=N\[C@@H](CO)C(=O)O [shinorine],preventing and/or reducing UV-induced DNA damage compared to untreated group,"MAA extract applied on human skin tissue, 135 mJ/cm2 UV-A and UV-B, three days post exposure, cleaved caspase-3 IHC",significantly effective
same,efficacy vs. 10% zinc oxide against UV-induced DNA damage,"human skin tissue, 72 h post UV irradiation, comparator 10% ZnO, FIG. 7",significant efficacy; also recorded: significantly more effective
